Biological target: Cytochrome P450 2C19 (Homo sapiens, UniProt P33261)
Assay: Evaluation of Compound Inhibition of Cytochrome P450
Procedure: Enzymatic experiments were performed to quantify the inhibition of CYP450 enzyme activity of each isoform of CYP450 by small molecule inhibitors through fluorescence generated by the oxidation of the substrate by cytochrome P450. […] The Solution B composition used for the experiment was: 40 U/mL G6PDH (Sigma-aldrich, Cat #G6378). The substrate mix was 0.05× Solution A, 0.01× Solution B, 50 mM Potassium Phosphate, 0.01 mM BOMCC/0.01 mM EOMCC/0.001 mM DBOMF.

Sequence of Cytochrome P450 2C19 (P33261 whole entry): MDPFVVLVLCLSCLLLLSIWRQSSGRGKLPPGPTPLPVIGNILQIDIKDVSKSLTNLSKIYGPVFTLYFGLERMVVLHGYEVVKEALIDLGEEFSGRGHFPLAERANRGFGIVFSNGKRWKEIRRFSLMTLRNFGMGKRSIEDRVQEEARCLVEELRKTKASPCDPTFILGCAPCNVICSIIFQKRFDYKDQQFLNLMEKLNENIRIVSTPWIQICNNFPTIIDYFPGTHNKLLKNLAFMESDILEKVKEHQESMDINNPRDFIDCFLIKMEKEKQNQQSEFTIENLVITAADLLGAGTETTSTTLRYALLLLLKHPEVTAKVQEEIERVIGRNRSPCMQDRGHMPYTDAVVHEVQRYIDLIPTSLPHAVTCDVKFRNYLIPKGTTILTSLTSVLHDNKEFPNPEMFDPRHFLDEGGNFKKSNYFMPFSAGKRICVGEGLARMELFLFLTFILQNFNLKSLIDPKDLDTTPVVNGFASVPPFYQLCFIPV

| Structure (SMILES) | IC50 [µM] |
| --- | --- |
| C=CCn1c(=O)c2cnc(Nc3ccc(N4CC5CC(C4)N5C)cc3)nc2n1-c1ccc2c(n1)[C@@](C)(O)C1(CC2)CC1 [US20250304587, Compound 7a] | 1 to 10 |
| C=CCn1c(=O)c2cnc(Nc3ccc(N4CCC5(CCN(C)CC5)CC4)cc3)nc2n1-c1ccc2c(n1)[C@](C)(O)C1(CC2)CC1 (racemic) [US20250304587, Compound 44] | 1 to 10 |

Source: BindingDB's records for patent US20250304587 (Jiangsu Tasly Diyi Pharmaceutical, 2025)
